Experimental findings from ChEMBL document CHEMBL1201862, “PubChem BioAssay data set” (2004) are described below.

Holding throughout (assay): DTP human tumour cell line panel, 48 h
The subject of assay [1] is MDA-MB-435.
Assay [2] relates to OVCAR-5.
For assay [3], the system named is HOP-62.
The test system of assay [4] is A498.
For assay [5], the system named is OVCAR-4.
Assay [6] deals with HCT-15.
Assay [7] has as its system U-251.
Assay [8] deals with SK-OV-3.
For assay [9], the system named is NCI-H460.
In assay [10] the test system is TK-10.
For assay [11], the system named is SN12C.
In assay [12] the test system is UACC-257.
In assay [13] the test system is SW-620.
Assay [14] concerns NCI-H226.
Assay [15] deals with OVCAR-3.
In assay [16] the test system is HCT-116.
The test system of assay [17] is T47D.
For assay [18], the system named is SF-295.
Assay [19] relates to UACC-62.

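Protocol summary: plate cells (96-well), add compound at 5 concentrations, incubate 48 h, interpolate endpoints linearly. The concentration for 50% growth inhibition is given as GI50.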 Activity calls are given as the source filed them. No stated cut-off is given here; in the data, active = GI50 up to about 1.1 µM and inactive = higher.

Broadly, the GI50 is the concentration that inhibits growth by half.

In the case of `COCCOC(=O)C1=C(O)c2ccccc2S(=O)(=O)N1C`, the GI50 was > 100 µM (inactive) in assay [1]; > 100 µM (inactive) in assay [2]; > 100 µM (inactive) in assay [3]; > 100 µM (inactive) in assay [4]; > 100 µM (inactive) in [5]; above 100 µM in assay [6]. Moreover, the GI50 in assay [7], in [8], in assay [9], in [10], in assay [11] and in assay [12] was > 100 µM (inactive) in each case. Besides, the GI50 in assay [13], in assay [14], in assay [15], in [16], in assay [17] and in assay [18] was > 100 µM (inactive) throughout. In assay [19], the GI50 was > 100 µM (inactive).
On to `O=C(NN1C(=O)CSC1c1ccco1)c1ccncc1` (centres undefined), for which the GI50 in assay [1] was > 100 µM (inactive); in assay [2] it was > 100 µM (inactive); in assay [3] it was > 100 µM (inactive); in assay [4], > 100 µM (inactive); in assay [5], > 100 µM (inactive); in assay [6] it was above 100 µM. Further, the GI50 in assay [7], in [8], in [9], in assay [10], in assay [11] and in assay [12] was > 100 µM (inactive) in each case. In addition, the GI50 in [13], in [14], in assay [15], in assay [16], in assay [17] and in assay [18] was > 100 µM (inactive) in each case. In addition, the GI50 in assay [19] was > 100 µM (inactive).
In the case of `CCOC(=O)c1c(N2CCCC2)nsc1Nc1ccc(F)cc1`, the GI50 in assay [1] was 28.8 µM (inactive); in assay [2], 25.4 µM (inactive); in assay [3], 63.5 µM (inactive); in [4] it was 40 µM (inactive); in assay [5], 64.4 µM (inactive); in assay [6] it was 29.6 µM. Also, the GI50 in [7] was 41.9 µM (inactive); in assay [8] it was 41 µM (inactive); in assay [9], 27 µM (inactive); in assay [10], 57.7 µM (inactive); in [11] it was 36.3 µM (inactive); in [12], 45.1 µM (inactive). Further, the GI50 in assay [13] was 40.4 µM (inactive); in assay [14], 60.4 µM (inactive); in assay [15] it was > 100 µM (inactive); in assay [16] it was 29.7 µM (inactive); in assay [17], 9.57 µM (inactive); in assay [18] it was 60 µM (inactive). For the same compound, the GI50 in assay [19] is 45.4 µM (inactive).
For the compound `O=C(Cc1ccc(Cl)cc1)Nc1ccc2oc(-c3ccccc3)nc2c1`, the GI50 was > 100 µM (inactive) in assay [1]; > 100 µM (inactive) in [2]; 35.6 µM (inactive) in assay [3]; > 100 µM (inactive) in assay [4]; 29.5 µM (inactive) in [5]; above 100 µM in assay [6]. For the same compound, the GI50 in [7] was 56.1 µM (inactive); in [8], 77.8 µM (inactive); in [9], > 100 µM (inactive); in assay [10], > 100 µM (inactive); in assay [11], 84.9 µM (inactive); in assay [12] it was > 100 µM (inactive). Also, the GI50 is > 100 µM (inactive) in [13]; 27.6 µM (inactive) in assay [14]; > 100 µM (inactive) in assay [15]; > 100 µM (inactive) in assay [16]; > 100 µM (inactive) in [17]; > 100 µM (inactive) in assay [18]. The GI50 in [19] was > 100 µM (inactive).
For `CC(C)(C)c1cc(C2=NN(c3ccccc3)C(c3ccccc3)C2)cc(C(C)(C)C)c1O` (centres undefined), the GI50 in [1] was > 100 µM (inactive); in assay [2], > 100 µM (inactive); in assay [3], > 100 µM (inactive); in [4] it was > 100 µM (inactive); in assay [5] it was > 100 µM (inactive); in [6], above 100 µM. Also, the GI50 in assay [7] was > 100 µM (inactive); in [8], > 100 µM (inactive); in assay [9], > 100 µM (inactive); in assay [10], > 100 µM (inactive); in [11] it was > 100 µM (inactive); in assay [12], 35.2 µM (inactive). The GI50 in assay [13] is > 100 µM (inactive); in assay [14], > 100 µM (inactive); in assay [15] it was 54.8 µM (inactive); in assay [16], > 100 µM (inactive); in assay [17] it was 31.5 µM (inactive); in assay [18] it was > 100 µM (inactive). The GI50 in assay [19] is > 100 µM (inactive).
As for `O=Cc1ccc2c(c1)CC1(C2)Cc2ccc(C=O)cc2C1`, the GI50 was 2.62 µM (inactive) in assay [1]; > 77.1 µM (inactive) in assay [2]; 14.7 µM (inactive) in assay [3]; 28.1 µM (inactive) in assay [4]; 12.4 µM (inactive) in assay [5]; 7.03 µM in assay [6]. The GI50 was 8.69 µM (inactive) in assay [7]; 55.2 µM (inactive) in assay [8]; 11.6 µM (inactive) in [9]; 8.81 µM (inactive) in assay [10]; 28.2 µM (inactive) in [11]; 18.8 µM (inactive) in assay [12]. In addition, the GI50 in [13] was 16.1 µM (inactive); in assay [14] it was 22.8 µM (inactive); in assay [15] it was 13.9 µM (inactive); in assay [16], 7.52 µM (inactive); in assay [17], 25.8 µM (inactive); in assay [18], > 45.2 µM (inactive). For the same compound, in assay [19], the GI50 is 6.76 µM (inactive).
For `CCc1n[nH]c(=O)n1NC(=O)CCCC(=O)O`, the GI50 in assay [1] is > 100 µM (inactive); in assay [2] it was > 100 µM (inactive); in assay [3], > 100 µM (inactive); in assay [4], > 100 µM (inactive); in assay [5] it was > 100 µM (inactive); in assay [6], above 100 µM. The GI50 in [7], in assay [8], in assay [9], in [10], in assay [11] and in assay [12] was > 100 µM (inactive) each time. In addition, the GI50 in assay [13], in [14], in [15], in assay [16], in assay [17] and in [18] was > 100 µM (inactive) each time. In addition, the GI50 in assay [19] was > 100 µM (inactive).
`Nc1nc(Cl)c(N)c(NCC2(CO)CC(CCCc3ccccc3)C2)n1` (centres undefined): the GI50 in assay [1] is 11.6 µM (inactive); in assay [2], > 100 µM (inactive); in [3] it was 59.2 µM (inactive); in assay [4] it was 15.5 µM (inactive); in assay [5] it was > 33.7 µM (inactive); in assay [6], 51.5 µM. For the same compound, the GI50 in [7] is 34.3 µM (inactive); in assay [8] it was > 100 µM (inactive); in [9] it was 33.7 µM (inactive); in [10] it was 56.2 µM (inactive); in [11], 62.7 µM (inactive); in assay [12] it was 7.67 µM (inactive). In addition, the GI50 in [13] was 40.1 µM (inactive); in assay [14] it was 2.91 µM (inactive); in assay [15], 19.1 µM (inactive); in assay [16], 0.495 µM (active); in [17], 5.27 µM (inactive); in [18], 14 µM (inactive). Moreover, the GI50 in assay [19] was 24.1 µM (inactive).
Turning to `CCOC(=O)c1c(C)n(-c2ccc(Cl)cc2)c2c1cc(O)c1[nH]c3c(c12)CCCC3`, the GI50 in assay [1] is 24.9 µM (inactive); in assay [2] it was > 100 µM (inactive); in [3] it was > 100 µM (inactive); in [4] it was 73.1 µM (inactive); in assay [5], 45.8 µM (inactive); in assay [6] it was above 100 µM. In addition, the GI50 was 38.3 µM (inactive) in assay [7]; > 100 µM (inactive) in [8]; 47.5 µM (inactive) in assay [9]; > 100 µM (inactive) in [10]; 65.2 µM (inactive) in assay [11]; 47 µM (inactive) in [12]. For the same compound, the GI50 was 47.3 µM (inactive) in assay [13]; > 100 µM (inactive) in assay [14]; 54.2 µM (inactive) in assay [15]; > 100 µM (inactive) in assay [16]; > 100 µM (inactive) in assay [17]; 52.8 µM (inactive) in [18]. Also, the GI50 in assay [19] was 27.1 µM (inactive).
As for `CC1=CCC[C@H]2[C@](C)(CC3=CC(=O)C(SCC(C)C)=CC3=O)[C@@H](C)CC[C@]12C`, the GI50 in assay [1] is 15.7 µM (inactive); in [2], 18.5 µM (inactive); in assay [3] it was 14.6 µM (inactive); in [4] it was 18.8 µM (inactive); in assay [5] it was 15.3 µM (inactive); in [6] it was 15.1 µM. For the same compound, the GI50 is 14.3 µM (inactive) in assay [7]; 19.5 µM (inactive) in [8]; 14.6 µM (inactive) in [9]; 16.7 µM (inactive) in assay [10]; 24.9 µM (inactive) in [11]; 17.3 µM (inactive) in assay [12]. The GI50 in [13] was 17.3 µM (inactive); in assay [14], 11.8 µM (inactive); in assay [15], 17.4 µM (inactive); in [16], 12 µM (inactive); in [17], 2.25 µM (inactive); in assay [18], 16.1 µM (inactive). Moreover, in [19], the GI50 was 14.3 µM (inactive).
As to `[N-]=[N+]=NCC1OCC(O)C(OCc2ccccc2)C1OCc1ccccc1` (centres undefined), the GI50 in assay [1] was > 100 µM (inactive); in [2], > 100 µM (inactive); in assay [3] it was > 100 µM (inactive); in assay [4] it was > 100 µM (inactive); in assay [5], > 100 µM (inactive); in assay [6], 61 µM. The GI50 in assay [7] is > 100 µM (inactive); in assay [8], > 100 µM (inactive); in assay [9] it was 48.2 µM (inactive); in assay [10], > 100 µM (inactive); in assay [11], > 100 µM (inactive); in assay [12] it was 66.8 µM (inactive). Further, the GI50 in assay [13] was > 100 µM (inactive); in assay [14], 55 µM (inactive); in assay [15], > 100 µM (inactive); in assay [16], 95.9 µM (inactive); in [17], 25.1 µM (inactive); in assay [18], 79.3 µM (inactive). Besides, in [19], the GI50 was 31.9 µM (inactive).
